This note sets out measurements from PubChem BioAssay AID1549 (Sanford-Burnham Center for Chemical Genomics, 2009).

Calls of active or inactive are those of the source. The rule behind the calls is not given here. A value given as a limit tells only on which side of the number the result lay.

This test has as its target Influenza A virus M2 proton channel (A/TW/4845/1999 H1N1). In words: NMR binding screen, influenza A virus M2 proton channel, Kd (AID 1549). Conditions: M2 protein.
By Kd is commonly meant the constant that tells how readily two partners part at equilibrium. As to `COC(=O)C[C@@H]1C2(C)C(=O)[C@@H](CC3=C4CC(O)O[C@@H](c5ccoc5)[C@]4(C)CCC32)[C@H](O)C1(C)C` (some centres not stated), the Kd is > 4 mM (inactive). For `Nc1cccc(CC(=S)N2CCOCC2)c1`, the Kd is > 4 mM (inactive).

As to `CN(C)C(=S)Nc1nc2ccccc2s1`, the Kd is > 4 mM (inactive). Then `O=C(Nc1ccccc1Cl)c1cnccn1`, with > 4 mM (inactive); and `COc1cccc(N2CCN(C(=O)c3cccnc3)CC2)c1`, with > 4 mM (inactive); and `Cc1cc(C)n(-c2ccc(N)cc2)n1`, with > 4 mM (inactive). The value for `C=C1C(N)CC2CC1C2(C)C` (configuration not stated) was > 4 mM (inactive); that for `O=c1c2ccccc2nc2n1CCC2O` (configuration not stated) was > 4 mM (inactive).

With `O=C(Nc1nncs1)C1(c2ccccc2)CCCC1`, the Kd was > 4 mM (inactive).

For `COc1cc2c(cc1OC)C1=C(C#N)CCC(=O)N1CC2`, the Kd is > 4 mM (inactive). Turning to `Cc1ccc(S(=O)(=O)CC(N)=O)cc1`, the Kd is > 4 mM (inactive). Then `CC(C)c1ccc2c(c1O)CC[C@H]1C3=C(CC[C@]21C)C(=O)OC3`, with > 4 mM (inactive); and `CCc1cc2c(SCC(=O)O)ncnc2s1`, with > 4 mM (inactive); and `C[C@@H]1CC[C@@]23CCC4(C)[C@@](C=CC5[C@@]6(C)CCC(=O)C(C)(C)C6CC[C@]54C)(OC2=O)C3[C@H]1C` (some centres not stated), with > 4 mM (inactive). Take `Cc1cc(C)n2nc(C(=O)Nc3cccnc3)nc2n1`: the Kd is > 4 mM (inactive). Take `CC(=O)O[C@@H]1C[C@@]2(C)[C@H](c3ccoc3)C[C@H]3O[C@]32[C@]2(C)C(=O)C(O)=C3C(C)(C)C(=O)C=C[C@]3(C)C12` (some centres not stated): the Kd was > 4 mM (inactive). The value for `Cc1ccccc1N1C(=O)CC(=O)NC1=O` was > 4 mM (inactive). On to `O=C(O)c1ccc(CSc2ncn[nH]2)cc1`, for which the Kd is > 4 mM (inactive).

As to `C[n+]1cccc(C(=O)[O-])c1`, the Kd is > 4 mM (inactive). As for `COc1cccc(/C=C2/SC(N)=NC2=O)c1`, the Kd is > 4 mM (inactive). Then `CC(=O)c1c(C)nn(CC(=O)O)c1C`, with > 4 mM (inactive); and `COC(=O)c1cccnc1Oc1ccccc1`, with > 4 mM (inactive); and `CCCn1cnc2sc(C(N)=O)c(C)c2c1=O`, with > 4 mM (inactive). Then `Cn1c(O)c(C=NCC2CCNCC2)c(=O)n(C)c1=O`, with > 4 mM (inactive); and `CC1CCN(C(=O)c2cc3ccccc3o2)CC1`, with > 4 mM (inactive); and `O=C1CSC(=Nc2cc(Cl)ccc2Cl)N1`, with > 4 mM (inactive).

Take `Cn1ncc(C(=O)NC2CCCCC2)c1Cl`: the Kd is > 4 mM (inactive). `NC(=O)N1CCc2ccccc21`: the Kd was > 4 mM (inactive).

For the molecule `NC(C(=O)O)C(O)c1ccccc1` (configuration not stated), the Kd is > 4 mM (inactive). The value for `O=C1C2CC=C(Cl)CC2C(=O)N1c1ccccc1O` (configuration not stated) was > 4 mM (inactive); that for `Cc1cc(=O)[nH]c(NCC(=O)O)n1` was > 4 mM (inactive); that for `Cn1c(CNc2ccccc2)cc(=O)n(C)c1=O` was > 4 mM (inactive). Then `CC1=CC2C(CC1=O)C(C)=CCC2C(C)C` (configuration not stated), with > 4 mM (inactive). With `COc1c2c(cc3cc[n+](C)cc13)OCO2`, the Kd is > 4 mM (inactive). As for `O=c1[nH]cc(S(=O)(=O)Nc2ccccc2)c(=O)[nH]1`, the Kd is > 4 mM (inactive). Then `CC(=O)NC(O)C(=O)c1cccs1` (configuration not stated), with > 4 mM (inactive); and `Cc1ccc(SCC(=O)N2CCOCC2)cc1`, with > 4 mM (inactive); and `O=C(O)C1CSC(c2cccnc2)N1` (configuration not stated), with > 4 mM (inactive). Then `O=C(NCc1cccs1)c1nn2cccnc2c1Cl`, with > 4 mM (inactive); and `CC(=O)Nc1ccc(C(=O)NC2CCSC2=O)cc1` (configuration not stated), with > 4 mM (inactive).

For the molecule `CN1CCC(N2CCN(C)CC2)CC1`, the Kd is > 4 mM (inactive). Turning to `Cc1cc(=O)cc(C)n1-c1ccccc1N1CCOCC1`, the Kd is > 4 mM (inactive).

Regarding `OC[C@H]1O[C@@H](O[C@H]2[C@H](O)[C@@H](O)[C@@H](O)O[C@@H]2CO)[C@H](O)[C@@H](O)[C@@H]1O`, the Kd is > 4 mM (inactive). Then `CC(=O)Cc1nsc(NC(=O)c2ccc(C)cc2)n1`, with > 4 mM (inactive); and `Cc1nc2ccccc2c2c1C(=O)N(N)C2=O`, with > 4 mM (inactive). Then `OC[C@@H]1CCCN2CCCC[C@H]12`, with > 4 mM (inactive); and `CC1NC(C(=O)O)Cc2c1[nH]c1ccccc21` (configuration not stated), with > 4 mM (inactive); and `OCc1cccc2c1OCO2`, with > 4 mM (inactive). Then `CC(CCC(=O)O)[C@H]1CCC2C3C(C[C@H](O)[C@@]21C)[C@@]1(C)CC[C@@H](O)C[C@H]1C[C@H]3O` (some centres not stated), with > 4 mM (inactive). Turning to `Cc1nc(-c2ccc(CO)s2)cs1`, the Kd is > 4 mM (inactive). Then `Cc1noc(C)c1C(=O)Nc1ccccn1`, with > 4 mM (inactive); and `CC1=C/C(=C\c2c(O)[nH]c(=O)[nH]c2=O)C(C)=N1`, with > 4 mM (inactive); and `C[C@]12CCC3C(CC[C@H]4C[C@@H](O)CC[C@]34C)C1CCC2=O` (some centres not stated), with > 4 mM (inactive). The value for `O=C(O)CC(O)c1nc2ccccc2[nH]1` (configuration not stated) was > 4 mM (inactive); that for `Clc1ncc2[nH]cnc2n1` was > 4 mM (inactive); that for `Cc1ccc(N)nc1` was > 4 mM (inactive). Then `NC(=O)CSc1ccc2nnc(-c3ccccc3)n2n1`, with > 4 mM (inactive); and `COc1ccc2c3c1O[C@H]1C[C@@H](O)C=C[C@@]31CCN(C)C2`, with > 4 mM (inactive); and `OC12C=CC(CC1)CC2`, with > 4 mM (inactive). `COc1cc2c(cc1OC)C(C)NCC2` (configuration not stated): the Kd is > 4 mM (inactive). On to `O=c1[nH]nnc2sc3c(c12)CCCC3`, for which the Kd is > 4 mM (inactive). Then `C=C[C@@]1(C)CC(=O)[C@@]2(O)[C@](C)(O1)[C@@H](OC(C)=O)[C@@H](O)C1C(C)(C)CC[C@H](O)[C@@]12C` (some centres not stated), with > 4 mM (inactive); and `CC1(C)C(=O)C=C[C@@]2(C)C1=C(O)C(=O)[C@]1(C)C2CC[C@@]2(C)[C@H](c3ccoc3)C[C@H]3O[C@]321` (some centres not stated), with > 4 mM (inactive). For the molecule `CC(=O)c1csc(-c2cc(C)on2)n1`, the Kd was > 4 mM (inactive). The value for `O=C(Nc1ccncc1)Nc1ccc(F)cc1F` was > 4 mM (inactive); that for `CS(=O)(=O)N1CCN(C(=O)c2ccccc2)C1` was > 4 mM (inactive); that for `OCc1ccc2c(c1)OCCCO2` was > 4 mM (inactive). Consider `Cc1ccc2c(c1)CCCN2C(=O)c1c(C)noc1C`, for which the Kd was > 4 mM (inactive). The value for `O=C(Nc1cccnc1)c1cnn2cccnc12` was > 4 mM (inactive); that for `CC(C)[C@@H]1CC[C@@H](C)C[C@H]1OC(=O)c1ccccc1` was > 4 mM (inactive). The value for `O=C(NCCO)NC(=S)c1ccccc1` was > 4 mM (inactive); that for `O=C(NS(=O)(=O)c1ccccc1)c1ccccc1F` was > 4 mM (inactive).
